# Reference: PubChem BioAssay AID1918949 (Molecular Pharmacology Branch, DTP, NCI, 2023)
# Where “and” joins values, the source holds several entries; their conditions need not be identical. Equal entries are not always repeated.
# System: K24384-001-R-PDC complex spheroid viability
# Assay: Anticancer human tumor K24384-001-R-PDC patient-derived pancreatic adenocarcinoma cell line growth inhibition
# Settings: for viability, T/C: stronger effect = lower value
# Outline: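 Multicellular complex spheroids of tumor cells with human endothelial cells (HUVEC) and mesenchymal stem cells; the LSD1 inhibitor iadademstat was combined with standard-of-care or investigational agents. Top concentration at or near clinical Cmax, half-log dilutions; final DMSO ≤0.25%.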
# [1] = curve of first compound, second compound 0.1 µM
# [2] = curve of first compound, second compound 0.316 µM
# [3] = curve of first compound, second compound 1 µM
# [4] = curve of first compound, second compound 3.16 µM
# [5] = curve of first compound, second compound 10 µM
# 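Also: spheroids exposed to agents for seven days before luminescence viability reading.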
# 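For viability, T/C in this document: 100% = DMSO vehicle control viability.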
smiles,measurement,setting,value
CC(C)CC(NC(=O)CNC(=O)c1cc(Cl)ccc1Cl)B1OC(=O)CC(CC(=O)O)(C(=O)O)O1 (centres undefined) + NC1CC1c1ccc(-c2cccc(O)c2)cc1,IC50,[1],8.97 nM
same,IC50,[2],9.19 nM
same,IC50,[3],8.54 nM
same,IC50,[4],8.66 nM
same,IC50,[5],7.15 nM
same,"viability, T/C","second compound 0.1 µM, first compound 0.000316 µM",121%
same,"viability, T/C","second compound 0.1 µM, first compound 0.001 µM",123%
same,"viability, T/C","second compound 0.1 µM, first compound 0.00316 µM",97.3%
same,"viability, T/C","second compound 0.1 µM, first compound 0.01 µM",46.6%
same,"viability, T/C","second compound 0.1 µM, first compound 0.0316 µM",4.82%
same,"viability, T/C","second compound 0.1 µM, first compound 0.1 µM",0.93%
same,"viability, T/C","second compound 0.316 µM, first compound 0.000316 µM",114%
same,"viability, T/C","second compound 0.316 µM, first compound 0.001 µM",113%
same,"viability, T/C","second compound 0.316 µM, first compound 0.00316 µM",95.4%
same,"viability, T/C","second compound 0.316 µM, first compound 0.01 µM",47.8%
same,"viability, T/C","second compound 0.316 µM, first compound 0.0316 µM",4.68%
same,"viability, T/C","second compound 0.316 µM, first compound 0.1 µM",0.79%
same,"viability, T/C","second compound 1 µM, first compound 0.000316 µM",112%
same,"viability, T/C","second compound 1 µM, first compound 0.001 µM",129%
same,"viability, T/C","second compound 1 µM, first compound 0.00316 µM",117%
same,"viability, T/C","second compound 1 µM, first compound 0.01 µM",38.8%
same,"viability, T/C","second compound 1 µM, first compound 0.0316 µM",4.54%
same,"viability, T/C","second compound 1 µM, first compound 0.1 µM",0.98%
same,"viability, T/C","second compound 3.16 µM, first compound 0.000316 µM",117%
same,"viability, T/C","second compound 3.16 µM, first compound 0.001 µM",109%
same,"viability, T/C","second compound 3.16 µM, first compound 0.00316 µM",101%
same,"viability, T/C","second compound 3.16 µM, first compound 0.01 µM",42.9%
same,"viability, T/C","second compound 3.16 µM, first compound 0.0316 µM",4.31%
same,"viability, T/C","second compound 3.16 µM, first compound 0.1 µM",0.85%
same,"viability, T/C","second compound 10 µM, first compound 0.000316 µM",111%
same,"viability, T/C","second compound 10 µM, first compound 0.001 µM",136%
same,"viability, T/C","second compound 10 µM, first compound 0.00316 µM",103%
same,"viability, T/C","second compound 10 µM, first compound 0.01 µM",28.1%
same,"viability, T/C","second compound 10 µM, first compound 0.0316 µM",2.96%
same,"viability, T/C","second compound 10 µM, first compound 0.1 µM",0.48%
Nc1ccccc1NC(=O)c1ccc(CNC(=O)OCc2cccnc2)cc1 + NC1CCC(NC2CC2c2ccccc2)CC1,IC50,[1],376 nM
same,IC50,[2],444 nM
same,IC50,[3],447 nM
same,IC50,[4],401 nM
same,IC50,[5],321 nM
same,"viability, T/C","second compound 0.1 µM, first compound 0.00949 µM",86.6%
same,"viability, T/C","second compound 0.1 µM, first compound 0.03 µM",84.9%
same,"viability, T/C","second compound 0.1 µM, first compound 0.0949 µM",76.2%
same,"viability, T/C","second compound 0.1 µM, first compound 0.3 µM",61.3%
same,"viability, T/C","second compound 0.1 µM, first compound 0.949 µM",5.83%
same,"viability, T/C","second compound 0.1 µM, first compound 3 µM",0.14%
same,"viability, T/C","second compound 0.316 µM, first compound 0.00949 µM",79.7%
same,"viability, T/C","second compound 0.316 µM, first compound 0.03 µM",82.1%
same,"viability, T/C","second compound 0.316 µM, first compound 0.0949 µM",83.7%
same,"viability, T/C","second compound 0.316 µM, first compound 0.3 µM",70.8%
same,"viability, T/C","second compound 0.316 µM, first compound 0.949 µM",9.57%
same,"viability, T/C","second compound 0.316 µM, first compound 3 µM",0.15%
same,"viability, T/C","second compound 1 µM, first compound 0.00949 µM",80.3%
same,"viability, T/C","second compound 1 µM, first compound 0.03 µM",89%
same,"viability, T/C","second compound 1 µM, first compound 0.0949 µM",92%
same,"viability, T/C","second compound 1 µM, first compound 0.3 µM",70.6%
same,"viability, T/C","second compound 1 µM, first compound 0.949 µM",10.4%
same,"viability, T/C","second compound 1 µM, first compound 3 µM",0.13%
same,"viability, T/C","second compound 3.16 µM, first compound 0.00949 µM",79.9%
same,"viability, T/C","second compound 3.16 µM, first compound 0.03 µM",88.2%
same,"viability, T/C","second compound 3.16 µM, first compound 0.0949 µM",80.2%
same,"viability, T/C","second compound 3.16 µM, first compound 0.3 µM",65.2%
same,"viability, T/C","second compound 3.16 µM, first compound 0.949 µM",5.24%
same,"viability, T/C","second compound 3.16 µM, first compound 3 µM",0.16%
same,"viability, T/C","second compound 10 µM, first compound 0.00949 µM",84.1%
same,"viability, T/C","second compound 10 µM, first compound 0.03 µM",90.7%
same,"viability, T/C","second compound 10 µM, first compound 0.0949 µM",88.7%
same,"viability, T/C","second compound 10 µM, first compound 0.3 µM",53%
same,"viability, T/C","second compound 10 µM, first compound 0.949 µM",1.77%
same,"viability, T/C","second compound 10 µM, first compound 3 µM",0.2%
CC(C)CC(NC(=O)C(Cc1ccccc1)NC(=O)c1cnccn1)B(O)O (centres undefined),"viability, T/C",compound 0.000316 µM,81.2% and 95.6%
same,"viability, T/C",compound 0.001 µM,1.67% and 1.46%
same,"viability, T/C",compound 0.00316 µM,0.39% and 0.47%
same,"viability, T/C",compound 0.01 µM,0.38%
same,"viability, T/C",compound 0.0316 µM,0.34% and 0.41%
same,"viability, T/C",compound 0.1 µM,0.36% and 0.35%
same,IC50,curve of compound,0.497 nM and 0.552 nM
CC[C@@]1(O)C(=O)OCc2c1cc1n(c2=O)Cc2cc3c(CN(C)C)c(O)ccc3nc2-1,"viability, T/C",compound 0.000316 µM,107% and 94.3%
same,"viability, T/C",compound 0.001 µM,107% and 78.8%
same,"viability, T/C",compound 0.00316 µM,83.1% and 87.1%
same,"viability, T/C",compound 0.01 µM,73% and 57.5%
same,"viability, T/C",compound 0.0316 µM,61.3% and 49.8%
same,"viability, T/C",compound 0.1 µM,49.9% and 42.5%
same,IC50,curve of compound,> 100 nM and 21.4 nM
